# From patent US6855710B2, “Substituted indolines with an inhibitory effect on various kinases and complexes of CDKs” (Boehringer Ingelheim Pharma KG, priority 1998, dated 2005)
row,SMILES,melting point
1,"CN(C(=O)CN1CCN(Cc2ccccc2)CC1)c1ccc(N/C(=C2\C(=O)Nc3ccc([N+](=O)[O-])cc32)c2ccccc2)cc1 [Example 104, (Z)-3-{1-[4-(N-(4-benzylpiperazinomethylcarbonyl)-N-methyl-amino)-phenylamino]-1-phenyl-methylidene}-5-nitro-2-indolinone]",201 to 203 °C
2,"CC(=O)N(CCN(C)C)c1ccc(N/C(=C2\C(=O)Nc3ccc([N+](=O)[O-])cc32)c2ccccc2)cc1 [Example 328, (Z)-3-{1-[4-(N-(2-dimethylaminoethyl)-N-acetyl-amino)-phenylamino]-1-phenyl-methylidene}-5-nitro-2-indolinone]",228 to 230 °C
3,"CCOC(=O)Cc1cccc(N/C(=C2\C(=O)Nc3ccccc32)c2ccccc2)c1 [Example 11, (Z)-3-[1-(3-ethoxycarbonylmethyl-phenylamino)-1-phenyl-methylidene]-2-indolinone]",178 to 181 °C
4,"CC(C)(C)OC(=O)NCc1ccc(N/C(=C2\C(=O)Nc3ccc([N+](=O)[O-])cc32)c2ccccc2)cc1 [Example 113, (Z)-3-[1-(4-tert.butoxycarbonylaminomethyl-phenylamino)-1-phenyl-methylidene]-5-nitro-2-indolinone]",234 to 236 °C (dec.)
5,"CN(C)CCNc1ccc(N/C(=C2\C(=O)Nc3ccc([N+](=O)[O-])cc32)c2ccccc2)cc1 [Example 326, (Z)-3-{1-[4-(2-dimethylamino-ethylamino)-phenylamino]-1-phenyl-methylidene}-5-nitro-2-indolinone]",227 to 229 °C
6,"CC(C)(C)OC(=O)Nc1ccc(N/C(=C2\C(=O)Nc3ccc([N+](=O)[O-])cc32)c2ccccc2)cc1 [Example 90, (Z)-3-[1-(4-tert.butoxycarbonylamino-phenylamino)-1-phenyl-methylidene]-5-nitro-2-indolinone]",235 to 237 °C (dec.)
7,"Cc1ccc(S(=O)(=O)N(CC(=O)N(C)C)c2ccc(N/C(=C3\C(=O)Nc4ccccc43)c3ccccc3)cc2)cc1 [Example 206, (Z)-3-{1-[4-(N-dimethylaminocarbonylmethyl-N-(p-tolylsulphonyl)-amino)-phenylamino]-1-phenyl-methylidene}-2-indolinone]",223 to 226 °C
8,"Br.COCCNCCc1ccc(N/C(=C2\C(=O)Nc3ccc([N+](=O)[O-])cc32)c2ccccc2)cc1 [Example 257, (Z)-3-{1-[4-(2-(2-methoxyethylamino)-ethyl)-phenylamino]-1-phenyl-methylidene}-5-nitro-2-indolinone-hydrobromide]",297 to 299 °C
9,"O=CNc1ccc(N/C(=C2\C(=O)Nc3ccc([N+](=O)[O-])cc32)c2ccccc2)cc1 [Example 92, (Z)-3-[1-(4-formylamino-phenylamino)-1-phenyl-methylidene]-5-nitro-2-indolinone]",355 to 356 °C (dec.)
10,"CN(C)C(=O)CN(c1cccc(N/C(=C2\C(=O)Nc3ccccc32)c2ccccc2)c1)S(C)(=O)=O [Example 321, (Z)-3-{1-[3-(N-dimethylaminocarbonylmethyl-N-methylsulphonyl-amino)-phenylamino]-1-phenyl-methylidene}-2-indolinone]",213 to 216 °C
11,"CCOC(=O)c1ccc(N/C(=C2\C(=O)Nc3ccccc32)c2ccccc2)cc1 [Example 13, (Z)-3-[1-(4-ethoxycarbonyl-phenylamino)-1-phenyl-methylidene]-2-indolinone]",227 to 228 °C
12,"CCC(=O)N(CCN(C)C)c1ccc(N/C(=C2\C(=O)Nc3ccccc32)c2ccccc2)cc1 [Example 341, (Z)-3-{1-[4-(N-(2-dimethylaminoethyl)-N-propionyl-amino)-phenylamino]-1-phenyl-methylidene}-2-indolinone]",272 to 274 °C
13,CCN(CC)CC(=O)Nc1ccc(N/C(=C2\C(=O)Nc3ccc([N+](=O)[O-])cc32)c2ccccc2)cc1.Cl,287 to 288 °C
14,"CN(C)C(=O)CN(c1ccc(N/C(=C2\C(=O)Nc3ccccc32)c2ccccc2)cc1)S(=O)(=O)c1ccccc1 [Example 205, (Z)-3-{1-[4-(N-dimethylaminocarbonylmethyl-N-phenylsulphonyl-amino)-phenylamino]-1-phenyl-methylidene}-2-indolinone]",255 to 258 °C
15,"O=C1Nc2ccc([N+](=O)[O-])cc2/C1=C(/Nc1ccc(CN2CCOCC2)cc1)c1ccccc1 [Example 118, (Z)-3-[1-(4-morpholinomethyl-phenylamino)-1-phenyl-methylidene]-5-nitro-2-indolinone]",273 °C
16,"O=C1Nc2ccccc2/C1=C(/Nc1ccccc1)c1ccccc1 [Example 1, (Z)-3-(1-Anilino-1-phenyl-methylidene)-2-indolinone]",325 °C
17,"CN(C)Cc1ccc(N/C(=C2\C(=O)Nc3ccc([N+](=O)[O-])cc32)c2cccc(Cl)c2)cc1 [Example 224, (Z)-3-[1-(4-dimethylaminomethyl-phenylamino)-1-(3-chlorophenyl)-methylidene]-5-nitro-2-indolinone]",274 °C
18,"CN(C)C(=N)c1cccc(N/C(=C2\C(=O)Nc3ccccc32)c2ccccc2)c1 [Example 66, (Z)-3-{1-[3-(N,N-dimethylcarbamimidoyl)-phenylamino)-1-phenyl-methylidene}-2-indolinone]",238 to 242 °C

row,SMILES,melting point
1,"Cc1cccc(/C(Nc2ccc(CN(C)C)cc2)=C2/C(=O)Nc3ccccc32)c1 [Example 213, (Z)-3-[1-(4-dimethylaminomethyl-phenylamino)-1-(m-tolyl)-methylidene]-2-indolinone]",224 to 226 °C
2,"CC(C)CNCc1ccc(N/C(=C2\C(=O)Nc3ccc([N+](=O)[O-])cc32)c2ccccc2)cc1 [Example 164, (Z)-3-[1-(4-isobutylaminomethyl-phenylamino)-1-phenyl-methylidene]-5-nitro-2-indolinone]",208 °C
3,"CN(C)CC(=O)Nc1ccc(N/C(=C2\C(=O)Nc3ccc([N+](=O)[O-])cc32)c2ccccc2)cc1 [Example 94, (Z)-3-[1-(4-dimethylaminomethylcarbonylamino-phenylamino)-1-phenyl-methylidene]-5-nitro-2-indolinone]",254 to 257 °C
4,"CCS(=O)(=O)N(CC(=O)NCCN(C)C)c1ccc(N/C(=C2\C(=O)Nc3ccccc32)c2ccccc2)cc1 [Example 301, (Z)-3-{1-[4-(N-(2-dimethylamino-ethylaminocarbonylmethyl)-N-ethylsulphonyl-amino)-phenylamino]-1-phenyl-methylidene}-2-indolinone]",203 °C
5,"CN(C)CCN(c1ccc(N/C(=C2\C(=O)Nc3ccc([N+](=O)[O-])cc32)c2ccccc2)cc1)S(=O)(=O)Cc1ccccc1 [Example 313, (Z)-3-{1-[4-(N-(2-dimethylaminoethyl)-N-benzylsulphonyl-amino)-phenylamino]-1-phenyl-methylidene}-5-nitro-2-indolinone]",248 °C
6,"CN(C)C(=O)C1CCN(Cc2ccc(N/C(=C3\C(=O)Nc4ccc([N+](=O)[O-])cc43)c3ccccc3)cc2)CC1 [Example 249, (Z)-3-{1-[4-(4-dimethylaminocarbonyl-piperidinomethyl)-phenylamino]-1-phenyl-methylidene}-5-nitro-2-indolinone]",272 to 273 °C
7,"COCC(=O)Nc1ccc(N/C(=C2\C(=O)Nc3ccccc32)c2ccccc2)cc1 [Example 40, (Z)-3-[1-(4-methoxymethylcarbonylamino-phenylamino)-1-phenyl-methylidene]-2-indolinone]",238 to 240 °C
8,"O=C(O)CN(C(=O)c1ccccc1)c1ccc(N/C(=C2\C(=O)Nc3ccccc32)c2ccccc2)cc1 [Example 361, (Z)-3-{1-[4-(N-carboxymethyl-N-benzoyl-amino)-phenylamino]-1-phenyl-methylidene}-2-indolinone]",277 °C (dec.)
9,Cl.NC(Cc1ccc(N/C(=C2\C(=O)Nc3ccc([N+](=O)[O-])cc32)c2ccccc2)cc1)C(=O)O (centres unmarked),225 °C (dec.)
10,"CN(C)S(=O)(=O)c1ccc(N/C(=C2\C(=O)Nc3ccccc32)c2ccccc2)cc1 [Example 405, (Z)-3-{1-[4-(dimethylaminosulphonyl)-phenylamino]-1-phenyl-methylidene}-2-indolinone]",280 °C
11,"COc1cccc(N/C(=C2\C(=O)Nc3ccccc32)c2ccccc2)c1 [Example 3, (Z)-3-[1-(3-methoxy-phenylamino)-1-phenyl-methylidene]-2-indolinone]",218 to 221 °C
12,"O=C(CN1CCOCC1)NCc1ccc(N/C(=C2\C(=O)Nc3ccc([N+](=O)[O-])cc32)c2ccccc2)cc1 [Example 141, (Z)-3-[1-(4-morpholinomethylcarbonylaminomethyl-phenylamino)-1-phenyl-methylidene]-5-nitro-2-indolinone]",290 to 295 °C
13,"CCN(CCO)CCc1ccc(N/C(=C2\C(=O)Nc3ccc([N+](=O)[O-])cc32)c2ccccc2)cc1 [Example 131, (Z)-3-{1-[4-(2-(N-(2-hydroxyethyl)-N-ethyl-amino)-ethyl)-phenylamino]-1-phenyl-methylidene}-5-nitro-2-indolinone]",165 to 166 °C
14,CN(C)Cc1ccc(N/C(=C2\C(=O)Nc3ccc([N+](=O)[O-])cc32)c2ccc([N+](=O)[O-])cc2)cc1,233 °C
15,"CN(C)C(=O)CN(c1ccc(N/C(=C2\C(=O)Nc3ccc([N+](=O)[O-])cc32)c2ccccc2)cc1)S(=O)(=O)Cc1ccccc1 [Example 303, (Z)-3-{1-[4-(N-(dimethylaminocarbonylmethyl)-N-benzylsulphonyl-amino)-phenylamino]-1-phenyl-methylidene}-5-nitro-2-indolinone]",159 to 161 °C
16,"CCOC(=O)CNCc1cccc(N/C(=C2\C(=O)Nc3ccc([N+](=O)[O-])cc32)c2ccccc2)c1 [Example 111, (Z)-3-[1-(3-ethoxycarbonylmethylaminomethyl-phenylamino)-1-phenyl-methylidene]-5-nitro-2-indolinone]",130 to 133 °C
17,"Cc1ccc(S(=O)(=O)N(CCN(C)C)c2ccc(N/C(=C3\C(=O)Nc4ccccc43)c3ccccc3)cc2)cc1 [Example 454, (Z)-3-[1-(4-(N-(2-dimethylaminoethyl)-N-(p-tolylsulphonyl)-amino)-phenylamino)-1-phenyl-methylidene]-2-indolinone]",213 to 215 °C
